In PubChem BioAssay AID493198 (Southern Research Specialized Biocontainment Screening …, 2011):
The source made the active and inactive calls. The rule behind the calls is not given here. Where a SMILES comes first, the peptide text is derived from it.

Tests used:
[1] = system: Mycobacterium tuberculosis H37Rv growth in 7H9 media; test: M. tuberculosis growth inhibition, dose response, H37Rv, purified and synthesized compounds (AID 493198); details: for IC90: 90% growth inhibition concentration
[2] = as above; details: Mycobacterium tuberculosis H37Rv growth in 7H9 media; at 100 µM (top of the series)

In the case of Cc1ccc2c(c1)c(C1=c3ccccc3=NC1=O)c(O)n2C, the IC50 [1] is reported as < 200 nM and the IC90 [1] is reported as 1870 nM.
In the case of Cc1ccc2ccc3ccc(C)nc3c2n1, the IC50 [1] is reported as < 200 nM and the IC90 [1] is reported as < 200 nM.
Molecule Cc1nn2c(NCc3ccccn3)cc(C(C)C)nc2c1-c1ccccc1 has an IC50 [1] of 1030 nM and an IC90 [1] of 1560 nM.
With O=C(NCC(c1cccs1)N1CCOCC1)c1cc([N+](=O)[O-])cc([N+](=O)[O-])c1 (centres undefined) the IC50 [1] was < 200 nM and the IC90 [1] was < 200 nM.
For COC(=O)c1cc(=O)n(-c2ccc(F)cc2)c(=Nc2ccc(F)cc2)s1, the IC50 [1] was < 200 nM and the IC90 [1] was 1580 nM.
For O=C(/C=C/c1ccccc1)N1CCN(CCN2C(=O)c3cccc4cccc(c34)C2=O)CC1, the IC50 [1] was 3470 nM and the IC90 [1] was 5320 nM.
With CCOC(=O)COn1c2c(c3c4no[n+]([O-])c4ccc31)CCCC2 the IC50 [1] was 1580 nM and the IC90 [1] was 3110 nM.
For COC(=O)C1CC(=O)N(c2ccc(OCc3ccccc3Cl)cc2)C1 (centres undefined), the IC50 [1] was < 200 nM and the IC90 [1] was 18400 nM.
With CC(=NCc1ccc2c(c1)OCO2)C1=C(O)c2ccccc2C1=O the IC50 [1] was < 200 nM and the IC90 [1] was 23100 nM.
With CNc1nc(SCc2ccccc2Cl)nc2c1CCCC2 the IC50 [1] was < 200 nM and the IC90 [1] was 5050 nM.
In the case of CCOC(=O)C(C)Sc1ncnc2c1nnn2-c1ccc(F)cc1 (centres undefined), the IC50 [1] is reported as < 200 nM and the IC90 [1] is reported as 7770 nM.
Molecule S=c1nc[nH]c2nc[nH]c12 has an IC50 [1] of 1280 nM and an IC90 [1] of 1760 nM.
With Cc1nc(SCC(=O)NC2CCCCC2)[nH]c(=O)c1C the IC50 [1] was < 200 nM and the IC90 [1] was < 200 nM.
For c1ccc(/N=C2\N=C(Nc3ccccn3)c3ccccc32)nc1, the IC50 [1] was < 200 nM and the IC90 [1] was < 200 nM.
In the case of CC(C)NC(=O)c1sc(=S)n2c1[nH]c(=O)c1ccc(C(=O)NCCc3ccc(Cl)cc3)cc12, the IC50 [1] is reported as < 200 nM and the IC90 [1] is reported as < 200 nM.
Molecule CCOC(=O)CNC(=O)[C@H](Cc1ccccc1)NC(=O)OCc1ccccc1 (HELM PEPTIDE1{[O=C(OCc1ccccc1)[*:2]].F.G.[CCO[*:1]]}$$$$V2.0) has an IC50 [1] of 1090 nM and an IC90 [1] of 1860 nM.
With Cc1ccc(NC(=O)C2C3/C=C\CCCCC32)cc1C (centres undefined) the IC50 [1] was 1170 nM and the IC90 [1] was 1840 nM.
COc1cc(NC(=O)C/C(C)=N/NC(=O)c2ccccn2)c(OC)cc1Cl gave an IC50 [1] of 1940 nM and an IC90 [1] of 4880 nM.
Work on CCC(C)Nc1ccc(NC(C)CC)cc1 (centres undefined) yielded an IC50 [1] of 609 nM and an IC90 [1] of 1660 nM.
For O=C(CSc1nc2ccccc2c(=O)[nH]1)NC1CCCCC1, the IC50 [1] was < 200 nM and the IC90 [1] was < 200 nM.
For CCOC(=O)COc1ccc(/C=C2\NC(=S)N(CC)C2=O)cc1, the IC50 [1] was 1310 nM and the IC90 [1] was 5200 nM.
For Oc1ccccc1/C=N/Nc1ccnc(SCc2ccccc2)n1, the growth inhibition [2] was 2.04% (inactive).
CCc1ccc(/C=C2/C(=O)N(C)C(=S)N2CC(=O)OC)s1 gave an IC50 [1] of 2270 nM and an IC90 [1] of 17700 nM.
COC(=O)C(C)Oc1ccc(-c2nccc(-c3ccccn3)n2)cc1 (centres undefined) gave an IC50 [1] of 1190 nM and an IC90 [1] of 2920 nM.
In the case of COC(=O)CCc1nc2c(C#N)c(-c3ccc(Cl)cc3)ccn2n1, the IC50 [1] is reported as < 200 nM and the IC90 [1] is reported as 14000 nM.
For O=C(CSc1nc2ccccc2c(=O)[nH]1)NCc1ccc(Cl)cc1, the IC50 [1] was < 200 nM and the IC90 [1] was 929 nM.
Work on O=C(/C=C\c1cccs1)N1CCN(Cc2ccc3c(c2)OCO3)CC1 yielded an IC50 [1] of 445 nM and an IC90 [1] of 7480 nM.
In the case of CCOC(=O)c1ccc(NC(=O)Cn2ncc(Cl)c(Cl)c2=O)cc1, the IC50 [1] is reported as < 200 nM and the IC90 [1] is reported as 203 nM.
In the case of O=C1C(Br)=Cc2cccc3cccc1c23, the IC50 [1] is reported as < 200 nM and the IC90 [1] is reported as < 200 nM.
For Cc1cccc(/C=C/C(=O)c2ccc([N+](=O)[O-])o2)c1, the IC50 [1] was < 200 nM and the IC90 [1] was < 200 nM.
